Source: patent US10478501B2, “Method of treating disorders using a pharmaceutical composition of oligopeptides” (Merck Patent GmbH, priority 2011, dated 2019)

Tests used:
[1] = tested on: H460; test: Cellular radiosensitivity by clonogenic cell survival assay, H460; format: cell-based, human; conditions: combined with γ-radiation, given 1 h before and continued 23 h after irradiation
Protocol: (§1) Methods: Three non-small cell lung carcinoma lines (NSCLCs) (H460, A549 and H1299) and three head and neck squamous cell carcinoma lines (HNSCCs) (FaDu, SCC-15 and SCC-25) cell lines were used for in vitro experiments. Of these, H460 and FaDu were used for in vivo testing when grown as xenografts in nude mice. The effects of cilengitide (1-50 μg/ml, 24 h) on in vitro cell viability was determined by MTS assay and on cellular radiosensitivity by clonogenic cell survival assay after exposing the cells to graded single doses of γ-radiation with or without cilengitide (given 1 h before and continued for 23 h after irradiation). In vivo effect of cilengitide on radioresponse of xenografts was assessed by tumor growth delay. When tumor xenografts reached 7 mm in diameter cilengitide treatment (30 or 60 mg/d/5 or 10 days) was initiated followed by a single dose of 15 Gy local radiation (using ^137Cs γ-ray source), when the tumors reached 8 mm.

[2] = tested on: MDA-MB-231 breast cancer bone metastases; test: Experimental breast cancer bone metastases in nude rats: histology / immunofluorescence of tumor vessels; format: in vivo, nude rats (RNU strain); conditions: after 4 weeks treatment (control rats 8.8 μm; p<0.01)
Protocol: Nude rats (RNU strain) are obtained from Harlan-Winkelmann GmbH (Borchen, Germany) at the age of six weeks and housed in a specific pathogen-free environment in a mini barrier system of the central animal facility. Animals are kept under controlled conditions (21±2° C. room temperature, 60% humidity, 12 h light-dark rhythm) and offered autoclaved food and water ad libitum. Sub-confluent MDAMB-231 cells are harvested using 0.05% Trypsin-EDTA (Gibco®; Invitrogen, Karlsruhe, Germany) counted on a Neubauer's chamber and resuspended in RPMI-1640 to a final concentration of 10^5 cells in 200 μl. Rats are anesthetized using a mixture of nitrous oxide (1 l/min), oxygen (0.5 l/min) and isoflurane (1.5 vol. %). Arterial branches of the right hind leg are dissected and 10^5 cells injected into the superficial epigastric artery as described previously.^28 Bone metastases established and are observed exclusively in the femur, tibia and fibula of the right hind leg. […]
At the end of the observation period lower limbs of each animal are amputated and muscular tissue removed. […] Mean positive area fractions of SMA and collagen IV (in percent) as well as mean vessel diameters (in μm) are determined from 4 representative animals of each group analyzing 10 fields of view chosen randomly from each rat using Analysis Software (cell^F; Olympus Soft Imaging Solutions, Münster, Germany). […]

[3] = tested on: U251 MG; test: U251 MG xenograft orthotopic brain model in nude rat, cilengitide with radiation; format: in vivo; conditions: for Tumor volume (mm^3) median (histologic, Alu ISH): median (range)
Protocol: Synergistic Effect of the Combination of Cilengitide with Radiation in U251 MG Xenograft Orthotopic Brain Model in Nude Rat Caspase 3 Staining (Shown in FIG. 17) [table] RT is radiotherapy. Single dose. EMD is cilengitide. Single dose.

[4] = tested on: A549; test: Cellular radiosensitivity by clonogenic cell survival assay, A549; format: cell-based, human; conditions: combined with γ-radiation, given 1 h before and continued 23 h after irradiation
Protocol: as §1

[5] = tested on: 4T1 mouse breast tumour cells; test: Study 006: 4T1 survival model; format: in vivo, female BALB/c mice; conditions: 300 mg/kg daily s.c. as Composition according to Example 18; mastectomy 11 days post-inoculation
Protocol: 4T1 mouse breast tumour cells were orthotopically inoculated into the fourth mammary fat pad of female BALB/c mice. Treatment started seven days post-inoculation (Day 0), when the mice were randomised, based on tumour size. Animals received treatment with either Vehicle Control (Placebo), EMD 121974 (75, 150 or 300 mg/kg as a Composition according to Example 18), or Taxol® (8 mg/kg). The Vehicle Control and EMD 121974 were administered daily by subcutaneous injection. Taxol® was administered three times weekly by intravenous injection. To assess the survival of tumor bearing animals a mastectomy was performed 11 days post-inoculation (4 days after treatment start). Animals were monitored daily for clinical symptoms and were culled if body weight loss in any animal exceeded 15% of initial weight, the animal was culled or disease progression was observed (e.g. severe breathing difficulties). Body weight measurements were made three times per week.

[6] = tested on: H460 (NSCLC) tumor xenografts; test: Tumor growth delay of H460 xenografts with radiation; format: in vivo, nude mice
Protocol: as §1

[7] = tested on: SCC-15; test: In vitro cell viability by MTS assay, SCC-15; format: cell-based, human; conditions: 5 μg/ml, 24 h
Protocol: as §1

[8] = tested on: HNSCC lines (FaDu, SCC-15 and SCC-25); test: Cellular radiosensitivity by clonogenic cell survival assay, HNSCC lines; format: cell-based, human; conditions: combined with γ-radiation
Protocol: as §1

[9] = EMD (cilengitide) single dose + RT single dose, Control 41, RT 113, listed as EMD + RT

**Q.** Which radiosensitivity enhancement factor [1] does the source give for `CC(C)[C@H]1C(=O)N[C@@H](CCCN=C(N)N)C(=O)NCC(=O)N[C@@H](CC(=O)O)C(=O)N[C@H](Cc2ccccc2)C(=O)N1C` [Cilengitide, cyclo-(Arg-Gly-Asp-DPhe-NMeVal)] here?
**A.** 1.35

**Q.** And the “mean vessel diameter in bone metastases” value [2]?
**A.** 6.6 μm

**Q.** What about the “Days post implant (range)” value ([3]; Cilengitide + RT, at 4 months) of the same compound?
**A.** 131 (≥131) days

**Q.** What about the “Tumor volume (mm^3) median (histologic, Alu ISH)” value ([3]; Cilengitide + RT, at 4 months) of the same compound?
**A.** 0.10 (0.06-0.14) mm^3

**Q.** What about the “Tumor volume (mm^3) median (histologic, Alu ISH)” value ([3]; Cilengitide alone, at time of symptoms) of the same compound?
**A.** 175 (158-208) mm^3

**Q.** And the “MRI finding of rat brain” value ([3]; Cilengitide alone, representative animal imaged at 17d)?
**A.** contrast-enhancing tumor is visible

**Q.** What about the “Days post implant (range)” value ([3]; Cilengitide alone, time of symptoms) of the same compound?
**A.** 40 (40-41) days

**Q.** What about the “MRI finding of rat brain” value ([3]; Cilengitide+RT, representative animal imaged at 68 days (T2-MRI)) of the same compound?
**A.** no tumor is visible

**Q.** What about the “Median Survival” value [3, 9] of the same compound?
**A.** > 154 days

**Q.** And the “Median Survival in Days” value [3, 9]?
**A.** >154 vs 113 Days

**Q.** What about the radiosensitivity enhancement factor [4] of the same compound?
**A.** 1.56

**Q.** And the “survival of tumor bearing animals” value [5]?
**A.** comparable survival as Taxol

**Q.** And the “enhancement factor of tumor radioresponse (tumor growth delay)” value ([6]; with single dose of 15 Gy local radiation)?
**A.** 1.7

**Q.** What about the “antitumor activity as a single agent (tumor growth delay)” value ([6]; without radiation) of the same compound?
**A.** no antitumor activity

**Q.** And the in vitro viability [7]?
**A.** 71.4±2.2%

**Q.** And the “effect on radiosensitivity of HNSCC lines” value [8]?
**A.** only an additive effect
